Experimental findings from ChEMBL document CHEMBL4308923, “Identification of Human Toll-like Receptor 2-Agonistic Activity in Dihydropyridine-Quinolone Carboxamides” (ACS Med Chem Lett, 2019) are described below.

Holding throughout (format): cell-based
Test [1] deals with T1, Toll-like receptor 2 (Homo sapiens, UniProt O60603). In words: Agonist activity at human TLR2 expressed in HEK-Blue cells harboring NFkB promoter-driven secreted alkaline phosphatase assessed as induction of NFkB after 12 hrs by spectrophotometric assay.
T1 sequence (O60603 whole entry): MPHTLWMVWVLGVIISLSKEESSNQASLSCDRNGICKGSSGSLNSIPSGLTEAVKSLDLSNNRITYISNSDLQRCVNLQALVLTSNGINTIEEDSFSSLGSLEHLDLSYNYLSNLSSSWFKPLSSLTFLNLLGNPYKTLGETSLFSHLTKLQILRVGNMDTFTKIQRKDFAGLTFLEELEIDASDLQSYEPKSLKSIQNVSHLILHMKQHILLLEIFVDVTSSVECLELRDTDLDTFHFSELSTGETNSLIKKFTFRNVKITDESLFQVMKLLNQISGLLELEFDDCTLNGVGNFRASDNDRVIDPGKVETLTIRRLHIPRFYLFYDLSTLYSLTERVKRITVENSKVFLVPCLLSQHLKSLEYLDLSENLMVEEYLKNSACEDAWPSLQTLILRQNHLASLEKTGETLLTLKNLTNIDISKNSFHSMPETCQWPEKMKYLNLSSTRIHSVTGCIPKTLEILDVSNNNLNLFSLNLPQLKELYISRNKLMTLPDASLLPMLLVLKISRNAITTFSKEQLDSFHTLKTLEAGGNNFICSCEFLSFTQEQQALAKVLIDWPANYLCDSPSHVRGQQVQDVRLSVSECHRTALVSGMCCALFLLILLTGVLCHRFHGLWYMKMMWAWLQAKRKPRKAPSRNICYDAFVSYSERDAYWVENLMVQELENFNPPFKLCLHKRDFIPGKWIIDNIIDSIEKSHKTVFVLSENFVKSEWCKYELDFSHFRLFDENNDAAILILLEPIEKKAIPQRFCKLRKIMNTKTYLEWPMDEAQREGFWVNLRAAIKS
In test [2] the target is T1, Toll-like receptor 2. The test is described as follows: Agonist activity at human TLR2 expressed in HEK cells assessed as induction of MCP1 by ELISA.
Test [3] addresses T1, Toll-like receptor 2. In words: Agonist activity at human TLR2 expressed in HEK cells assessed as induction of MIP1alpha level.
The target of test [4] is T1, Toll-like receptor 2. The test is described as follows: Agonist activity at human TLR2 expressed in HEK cells assessed as induction of MIP1beta level.
Test [5] deals with T1, Toll-like receptor 2. The test is described as follows: Agonist activity at human TLR2 expressed in human THP1-Blue cells harboring NFkB promoter-driven secreted alkaline phosphatase assessed as induction of NFkB after 12 hrs co-treated with PAM2CSK4 by spectrophotometric assay.

Each structure is given as a SMILES string. Activity calls are given as the source filed them. No cut-off for these calls is given here.

For `CC1CCc2cc(F)cc3c(O)c(C(=O)NCc4nccn4C)c(=O)n1c23` (configuration not stated), the outcome at Toll-like receptor 2 [1] was inactive.
The same measure, in the same setting: under `Cc1ccc(S(=O)(=O)N2CCC[C@H]2C(=O)N2c3ccc(F)cc3CC[C@@H]2C)cc1` stands “Active”.
The same measure, in the same setting: under `CC1CCc2cc(F)cc3c(O)c(C(=O)NCc4ccc(N(C)C)nc4)c(=O)n1c23` (configuration not stated) stands “inactive”.
Same read-out and setting: under `CC1CCc2cc(F)cc3c(O)c(C(=O)NCC4CCN(C)C4)c(=O)n1c23` (configuration not stated) stands “inactive”.
Turning to `CC1CCc2cc(F)cc3c(O)c(C(=O)NCc4ccc5c(c4)OCCO5)c(=O)n1c23` (configuration not stated), on Toll-like receptor 2 [1], the result was inactive.
Still for that read-out and setting: under `Cc1nn(C)cc1CNC(=O)c1c(O)c2cc(F)cc3c2n(c1=O)C(C)CC3` (configuration not stated) stands “inactive”.
On the same count and under the same terms, under `Cc1nnc(CNC(=O)c2c(O)c3cc(F)cc4c3n(c2=O)C(C)CC4)o1` (configuration not stated) stands “inactive”; under `CC1CCc2cc(F)cc3c(O)c(C(=O)NCC4CNCCO4)c(=O)n1c23` (configuration not stated), “inactive”.
`Cc1cc(CNC(=O)c2c(O)c3cc(F)cc4c3n(c2=O)C(C)CC4)no1` (configuration not stated): on Toll-like receptor 2 [1], the outcome was inactive.
On to `CC1CCc2cc(F)cc3c(O)c(C(=O)NCc4cccnc4N(C)C)c(=O)n1c23` (configuration not stated), for which the results for the EC50 at Toll-like receptor 2 [1] and at Toll-like receptor 2 [2] were 3200 nM and 3090 nM, respectively.
On to `CC1CCc2cc(F)cc3c(O)c(C(=O)NCc4cccc(C(N)=O)c4)c(=O)n1c23` (configuration not stated), for which the result on Toll-like receptor 2 [1] was inactive.
For the molecule `CC1CCc2cc(F)cc3c(O)c(C(=O)NCc4ccc(N)nc4)c(=O)n1c23` (configuration not stated), the EC50 at Toll-like receptor 2 [1] worked out at 320 nM; at Toll-like receptor 2 [2] it was 7560 nM.
For the molecule `CC1CCc2cc(F)cc3c(O)c(C(=O)NCc4cccc5ncccc45)c(=O)n1c23` (configuration not stated), the outcome at Toll-like receptor 2 [1] was inactive.
On the same count and under the same terms, under `CC1CCc2cc(F)cc3c(O)c(C(=O)NCC4CCNCC4)c(=O)n1c23` (configuration not stated) stands “inactive”; under `CC1CCc2cc(F)cc3c(O)c(C(=O)NCc4cnc5ccccc5c4)c(=O)n1c23` (configuration not stated), “inactive”; under `CC1CCc2cc(F)cc3c(O)c(C(=O)NCC4CCOC4)c(=O)n1c23` (configuration not stated), “inactive”.
For `COc1cc(CNC(=O)c2c(O)c3cc(F)cc4c3n(c2=O)C(C)CC4)ccn1` (configuration not stated), the outcome on Toll-like receptor 2 [1] was inactive.
Consider `CC1CCc2cc(F)cc3c(O)c(C(=O)NCc4ccnn4C)c(=O)n1c23` (configuration not stated), for which, on Toll-like receptor 2 [1], the outcome was inactive.
Consider `C[C@H]1CCc2cc(F)ccc2N1`, for which, at Toll-like receptor 2 [1], the result was Active.
Still for that read-out and setting: under `CC1CCc2cc(F)cc3c(O)c(C(=O)NCc4nc5ccccc5[nH]4)c(=O)n1c23` (configuration not stated) stands “inactive”; under `CC1CCc2cc(F)cc3c(O)c(C(=O)NCc4ccccn4)c(=O)n1c23` (configuration not stated), “inactive”.
Turning to `CC1CCc2cc(F)cc3c(O)c(C(=O)NCc4cncnc4)c(=O)n1c23` (configuration not stated), the result at Toll-like receptor 2 [1] was inactive.
Take `CC1CCc2cc(F)cc3c(O)c(C(=O)NCc4cncc(F)c4)c(=O)n1c23` (configuration not stated): the EC50 amounted to 1000 nM at Toll-like receptor 2 [1] and 4520 nM at Toll-like receptor 2 [2].
Regarding `CC1CCc2cc(F)cc3c(O)c(C(=O)NCc4ccnc5[nH]ccc45)c(=O)n1c23` (configuration not stated), on Toll-like receptor 2 [1], the result was inactive.
Turning to `CC1CCc2cc(F)cc3c(O)c(C(=O)NCC4CCCN(C)C4)c(=O)n1c23` (configuration not stated), the outcome on Toll-like receptor 2 [1] was inactive.
Turning to `C[C@H]1CCc2cc(F)cc3c(O)c(C(=O)NCc4cncc(F)c4)c(=O)n1c23`, the outcome on Toll-like receptor 2 [1], on Toll-like receptor 2 [2], on Toll-like receptor 2 [3], on Toll-like receptor 2 [4] and at Toll-like receptor 2 [5] was Active.
Turning to `CC1CCc2cc(F)cc3c(O)c(C(=O)NCc4cccc5[nH]ccc45)c(=O)n1c23` (configuration not stated), the result at Toll-like receptor 2 [1] was inactive.
The same measure, in the same setting: under `CC1CCc2cc(F)cc3c(O)c(C(=O)NCc4ccnnc4)c(=O)n1c23` (configuration not stated) stands “inactive”; under `CC1CCc2cc(F)cc3c(O)c(C(=O)NCc4ccsc4)c(=O)n1c23` (configuration not stated), “inactive”; under `CC1CCc2cc(F)cc3c(O)c(C(=O)Nc4cccnc4)c(=O)n1c23` (configuration not stated), “inactive”.
Consider `CC1CCc2cc(F)cc3c(O)c(C(=O)NC4CCc5ncccc54)c(=O)n1c23` (configuration not stated), for which, at Toll-like receptor 2 [1], the EC50 was found to be 3000 nM.
Turning to `Cc1ccc(S(=O)(=O)N2CCC[C@H]2C(=O)N2c3ccc(F)cc3CC[C@H]2C)cc1`, the outcome on Toll-like receptor 2 [1] was Active.
For the molecule `Cc1ccncc1CNC(=O)c1c(O)c2cc(F)cc3c2n(c1=O)C(C)CC3` (configuration not stated), the concentration giving a half-maximal response (EC50) at Toll-like receptor 2 [1] came to 1450 nM.
Turning to `CC1CCc2cc(F)cc3c(O)c(C(=O)NCc4cccc5cc[nH]c45)c(=O)n1c23` (configuration not stated), the result on Toll-like receptor 2 [1] was inactive.
The same measure, in the same setting: under `CC1CCc2cc(F)cc3c(O)c(C(=O)NCc4cc5ccccc5[nH]4)c(=O)n1c23` (configuration not stated) stands “inactive”.
With `CC1CCc2cc(F)cc3c(O)c(C(=O)NCc4ccno4)c(=O)n1c23` (configuration not stated), the outcome on Toll-like receptor 2 [1] was inactive.
For the molecule `C[C@H]1CCc2cc(F)cc3c(O)c(C(=O)NCc4cccnc4)c(=O)n1c23`, the result at Toll-like receptor 2 [1], on Toll-like receptor 2 [2], at Toll-like receptor 2 [3], on Toll-like receptor 2 [4] and on Toll-like receptor 2 [5] was Active.
On to `CC1CCc2cc(F)cc3c(O)c(C(=O)NCCc4cccnc4)c(=O)n1c23` (configuration not stated), for which the values for the EC50 at Toll-like receptor 2 [1] and on Toll-like receptor 2 [2] were 1350 nM and 1860 nM, respectively.
With `CC1CCc2cc(F)cc3c(O)c(C(=O)NCc4ccncc4)c(=O)n1c23` (configuration not stated), the outcome at Toll-like receptor 2 [1] was inactive.
In the case of `CC1CCc2cc(F)cc3c(O)c(C(=O)NCc4nc5ccccc5n4C)c(=O)n1c23` (configuration not stated), on Toll-like receptor 2 [1], the result was inactive.
Turning to `CC1CCc2cc(F)cc3c(O)c(C(=O)NCc4ccc5c(c4)OCO5)c(=O)n1c23` (configuration not stated), the result on Toll-like receptor 2 [1] was inactive.
On the same count and under the same terms, under `C[C@@H]1CCc2cc(F)cc3c(O)c(C(=O)NCc4ccc(N)nc4)c(=O)n1c23` stands “Active”; under `CC1CCc2cc(F)cc3c(O)c(C(=O)NCC4CCCCN4)c(=O)n1c23` (configuration not stated), “inactive”.
Same read-out and setting: under `C[C@@H]1CCc2cc(F)cc3c(O)c(C(=O)NCc4cccnc4)c(=O)n1c23` stands “Active”.
Turning to `C[C@H]1CCc2cc(F)cc3c(O)c(C(=O)NCc4ccc(N)nc4)c(=O)n1c23`, the outcome on Toll-like receptor 2 [1], on Toll-like receptor 2 [2], at Toll-like receptor 2 [3], on Toll-like receptor 2 [4] and at Toll-like receptor 2 [5] was Active.
With `CC1CCc2cc(F)cc3c(O)c(C(=O)NCc4n[nH]c5ccccc45)c(=O)n1c23` (configuration not stated), the result on Toll-like receptor 2 [1] was inactive.
As for `CC1CCc2cc(F)cc3c(O)c(C(=O)NCC4CCCNC4)c(=O)n1c23` (configuration not stated), at Toll-like receptor 2 [1], the outcome was inactive.
The same measure, in the same setting: under `CC1CCc2cc(F)cc3c(O)c(C(=O)NCc4ccc5[nH]ccc5c4)c(=O)n1c23` (configuration not stated) stands “inactive”; under `CC1CCc2cc(F)cc3c(O)c(C(=O)NCc4cnn(C)c4)c(=O)n1c23` (configuration not stated), “inactive”.
For `CC1CCc2cc(F)cc3c(O)c(C(=O)NCc4cccnc4)c(=O)n1c23` (configuration not stated), the values for the EC50 at Toll-like receptor 2 [1] and at Toll-like receptor 2 [2] were 300 nM and 1350 nM, respectively.
Consider `CC1CCc2cc(F)cc3c(O)c(C(=O)NCc4ccc(Cl)nc4)c(=O)n1c23` (configuration not stated), for which, on Toll-like receptor 2 [1], the half-maximal effective concentration (EC50) is 5000 nM.
`CC1CCc2cc(F)cc3c(O)c(C(=O)NCc4cccs4)c(=O)n1c23` (configuration not stated): on Toll-like receptor 2 [1], the outcome was inactive.
On the same count and under the same terms, under `CC1CCc2cc(F)cc3c(O)c(C(=O)NCc4cccnn4)c(=O)n1c23` (configuration not stated) stands “inactive”; under `C[C@@H]1CCc2cc(F)ccc2N1`, “Active”; under `CC1CCc2cc(F)cc3c(O)c(C(=O)NCCn4ccnc4)c(=O)n1c23` (configuration not stated), “inactive”.
